Laboratory results taken from patent EP2800973B1 (priority 2012, dated 2013).
Like-named read-outs stand apart in the source and are kept apart here.

Tests used:
BoCell™ model cell line = type: cell-based; settings: for increase in BoCell™ Assay sensitivity: Figure 1, 24 hr pre-treatment with drug, then BoNT/A containing drug for an additional 24 hr, YFP/CFP emission ratio
[1] = tested on: BoCell™ modified neuroblastoma cells; type: cell-based
neuroblastoma cells = settings: pretreatment of cells; 1990 JBC paper; cited from earlier work

CCCC(=O)Nc1ncnc2c1ncn2[C@@H]1O[C@@H]2COP(=O)(O)O[C@H]2[C@H]1OC(=O)CCC [dibutyryl-cAMP, dibutyryl-cyclic AMP]
increase in BoCell™ Assay sensitivity (BoCell™ model cell line): increased sensitivity was not seen
increase in BoCell™ Assay sensitivity (BoCell™ model cell line; listed as db-cAMP): not

CC1CNCCN1S(=O)(=O)c1cccc2cnccc12.Cl.Cl (centres unmarked) [H7, 1-(5-isoquinolinylsulfonyl)-2-methylpiperazine dichloride]
H7 concentration giving maximal effects [1]: ImM
neurite length and neurite number per cells [1]: rapid increases in both neurite length and neurite number per cells
reversibility of the phenotypic change [1]: could be "rescued" by removal of the H7
time and dose dependence of the H7 effect [1]: both time and dose-dependent
increase in BoCell™ Assay sensitivity (BoCell™ model cell line): cause an increase in BoCell™ Assay sensitivity
H7 effect on assay sensitivity, dose dependence (BoCell™ model cell line; Figure 2A, 24 hr pre-treatment, then BoNT/A with H7 for 24 hr): dose dependent
increase in sensitivity with multiple H7 lots (BoCell™ model cell line; Figure 5, 0.75 mM H7 from three independent manufacturers, 24 hrs pre-incubation, then BoNT/A 24 hrs): all cause an increase in sensitivity
sensitivity of cells to BoNT/A treatment as measured by SNAP-25 reporter cleavage (BoCell™ model cell line; pretreatment of cells with H7): significantly increased
cell viability (BoCells): does not affect cell viability

N=C(N)NCCNS(=O)(=O)c1cccc2cnccc12 [HA1004]
morphologic changes in neuroblastoma cells (neuroblastoma cells): failed to induce morphologic changes

Calphostin C
increase in BoCell™ Assay sensitivity (BoCell™ model cell line): increased sensitivity was not seen
increase in BoCell™ Assay sensitivity (BoCell™ model cell line; listed as calphostin): not

Nc1ncnc2c1nc(Br)n2[C@@H]1O[C@@H]2COP(=O)(O)O[C@H]2[C@H]1O [8-Bromoadenosine-cAMP]
increase in BoCell™ Assay sensitivity (BoCell™ model cell line): increased sensitivity was not seen
increase in BoCell™ Assay sensitivity (BoCell™ model cell line; listed as 8-Br-cAMP): not

CC(C)Cn1c(=O)n(C)c(=O)c2[nH]cnc21 [IBMX]
increase in BoCell™ Assay sensitivity (BoCell™ model cell line): not and increased sensitivity was not seen
